Source: patent US9302999B2, “Substituted triazoles as herbicides” (E. I. DU PONT DE NEMOURS AND COMPANY, priority 2012, dated 2016)

What was measured:
Type in all cases: in vivo
[1] = tested on: barnyardgrass (Echinochloa crus-galli); experiment: Test A pre-/postemergence: barnyardgrass
How it was run: (§1)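 Plants in loam–sand blend were treated with test chemicals in non-phytotoxic solvent with surfactant, either as preemergence directed soil spray or postemergence at 2–10 cm, one- to two-leaf stage. After about ten days in greenhouse, injury was rated visually against untreated controls on a 0–100 scale (100 = complete control).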

[2] = tested on: crabgrass, large (large crabgrass, Digitaria sanguinalis); experiment: Test A pre-/postemergence: crabgrass, large
How it was run: as §1

[3] = tested on: foxtail, giant (giant foxtail, Setaria faberii); experiment: Test A pre-/postemergence: foxtail, giant
How it was run: as §1

[4] = tested on: morningglory (Ipomoea spp.); experiment: Test A pre-/postemergence: morningglory
How it was run: as §1

[5] = tested on: pigweed (Amaranthus retroflexus); experiment: Test A pre-/postemergence: pigweed
How it was run: as §1

[6] = tested on: velvetleaf (Abutilon theophrasti); experiment: Test A pre-/postemergence: velvetleaf
How it was run: as §1

[7] = tested on: wheat (Triticum aestivum); experiment: Test A pre-/postemergence: wheat
How it was run: as §1

corn (Zea mays) = experiment: Test A pre-/postemergence: corn
How it was run: as §1

rice (Oryza sativa) = experiment: Test B flooded paddy: rice; conditions: Flood; 250 g ai/ha; applied to paddy water at 2-leaf stage; visually evaluated after 13 to 15 days
How it was run: (§2)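 Plants were grown to the 2-leaf stage, then pots were flooded to 3 cm above the soil and compounds were applied directly into the paddy water. Water depth was held for the whole test; after 13 to 15 days in a greenhouse, injury was visually rated against untreated controls (0 = no effect, 100 = complete control).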

[8] = tested on: sedge, umbrella (small-flower umbrella sedge Cyperus difformis); experiment: Test B flooded paddy: sedge, umbrella; conditions: Flood; 250 g ai/ha; applied to paddy water at 2-leaf stage; visually evaluated after 13 to 15 days
How it was run: as §2

[9] = tested on: ducksalad (Heteranthera limosa); experiment: Test B flooded paddy: ducksalad; conditions: Flood; 250 g ai/ha; applied to paddy water at 2-leaf stage; visually evaluated after 13 to 15 days
How it was run: as §2

[10] = tested on: barnyardgrass (Echinochloa crus-galli); experiment: Test B flooded paddy: barnyardgrass; conditions: Flood; 250 g ai/ha; applied to paddy water at 2-leaf stage; visually evaluated after 13 to 15 days
How it was run: as §2

[11] = Postemergence, 125 g ai/ha, 0 to 100 scale, 0 is no effect, 100 is complete control
[12] = Postemergence, 500 g ai/ha, visual rating on 0 to 100 scale (0 no effect, 100 complete control), approximately ten days
[13] = Preemergence, 125 g ai/ha, 0 to 100 scale where 0 is no effect and 100 is complete control
[14] = Preemergence, 500 g ai/ha, 0 to 100 scale (0 no effect, 100 complete control)
[15] = Preemergence, 125 g ai/ha, 0 to 100 scale (0 no effect, 100 complete control)
[16] = Preemergence, 500 g ai/ha, 0 to 100 scale, 0 is no effect, 100 is complete control

## CCc1nn(-c2cccc(C(F)(F)F)c2)nc1Cc1cccc(C(F)(F)F)c1 [Compound 143]
[1]; [11]
  Barnyardgrass plant response rating: 20
[1]; [12]
  Barnyardgrass plant response rating: 50
[1]; [13]
  Plant response rating, Barnyardgrass: 30
[1]; [14]
  Plant response rating, Barnyardgrass: 90
[2]; [11]
  Crabgrass, Large plant response rating: 80
[2]; [12]
  Crabgrass, Large plant response rating: 100
[2]; [13]
  Plant response rating, Crabgrass, Large: 90
[2]; [14]
  Plant response rating, Crabgrass, Large: 100
[3]; [11]
  Foxtail, Giant plant response rating: 80
[3]; [12]
  Foxtail, Giant plant response rating: 100
[3]; [13]
  Plant response rating, Foxtail, Giant: 90
[3]; [14]
  Plant response rating, Foxtail, Giant: 100
[4]; [11]
  Plant response rating, Morningglory: 50
[4]; [12]
  Morningglory plant response rating: 90
[4]; [13]
  Plant response rating, Morningglory: 0
[4]; [14]
  Plant response rating, Morningglory: 0
[5]; [11]
  Plant response rating, Pigweed: 100
[5]; [12]
  Pigweed plant response rating: 100
[5]; [13]
  Plant response rating, Pigweed: 100
[5]; [14]
  Plant response rating, Pigweed: 100
[6]; [11]
  Plant response rating, Velvetleaf: 40
[6]; [12]
  Velvetleaf plant response rating: 80
[6]; [13]
  Plant response rating, Velvetleaf: 0
[6]; [14]
  Plant response rating, Velvetleaf: 20
[7]; [11]
  Plant response rating, Wheat: 10
[7]; [12]
  Wheat plant response rating: 40
[7]; [13]
  Plant response rating, Wheat: 0
[7]; [14]
  Plant response rating, Wheat: 10
Corn (Zea mays); [11]
  Corn plant response rating: 40
Corn (Zea mays); [12]
  Corn plant response rating: 50
Corn (Zea mays); [13]
  Plant response rating, Corn: 0
Corn (Zea mays); [14]
  Plant response rating, Corn: 20
Rice (Oryza sativa)
  Plant response rating, Rice (0 to 100 scale, 0 is no effect, 100 is complete control): 30
[8]
  Plant response rating, Sedge, Umbrella (0 to 100 scale, 0 is no effect, 100 is complete control): 75
[9]
  Plant response rating, Ducksalad (0 to 100 scale, 0 is no effect, 100 is complete control): 0
[10]
  Plant response rating, Barnyardgrass (0 to 100 scale, 0 is no effect, 100 is complete control): 40

## O=C(c1ccnc(C(F)(F)F)c1)c1nn(-c2ccc(F)cc2)nc1F [Compound 158]
[1]; [11]
  Plant response rating, Barnyardgrass: 0
[1]; [12]
  Barnyardgrass plant response rating: 0
[1]; [13]
  Plant response rating, Barnyardgrass: 0
[1]; [14]
  Plant response rating, Barnyardgrass: 0
[2]; [11]
  Plant response rating, Crabgrass, Large: 0
[2]; [12]
  Crabgrass, Large plant response rating: 20
[2]; [13]
  Plant response rating, Crabgrass, Large: 0
[2]; [14]
  Plant response rating, Crabgrass, Large: 0
[3]; [11]
  Plant response rating, Foxtail, Giant: 0
[3]; [12]
  Foxtail, Giant plant response rating: 0
[3]; [13]
  Plant response rating, Foxtail, Giant: 0
[3]; [14]
  Plant response rating, Foxtail, Giant: 0
[4]; [11]
  Plant response rating, Morningglory: 0
[4]; [12]
  Morningglory plant response rating: 10
[4]; [13]
  Plant response rating, Morningglory: 0
[4]; [14]
  Plant response rating, Morningglory: 0
[5]; [11]
  Plant response rating, Pigweed: 10
[5]; [12]
  Pigweed plant response rating: 80
[5]; [13]
  Plant response rating, Pigweed: 0
[5]; [14]
  Plant response rating, Pigweed: 0
[6]; [11]
  Plant response rating, Velvetleaf: 0
[6]; [12]
  Velvetleaf plant response rating: 0
[6]; [13]
  Plant response rating, Velvetleaf: 0
[6]; [14]
  Plant response rating, Velvetleaf: 0
[7]; [11]
  Plant response rating, Wheat: 0
[7]; [12]
  Wheat plant response rating: 0
[7]; [13]
  Plant response rating, Wheat: 0
[7]; [14]
  Plant response rating, Wheat: 0
Corn (Zea mays); [11]
  Plant response rating, Corn: 0
Corn (Zea mays); [12]
  Corn plant response rating: 20
Corn (Zea mays); [13]
  Plant response rating, Corn: 0
Corn (Zea mays); [14]
  Plant response rating, Corn: 0
Rice (Oryza sativa)
  Plant response rating, Rice (0 to 100 scale, 0 is no effect, 100 is complete control): 75
[8]
  Plant response rating, Sedge, Umbrella (0 to 100 scale, 0 is no effect, 100 is complete control): 0
[9]
  Plant response rating, Ducksalad (0 to 100 scale, 0 is no effect, 100 is complete control): 0
[10]
  Plant response rating, Barnyardgrass (0 to 100 scale, 0 is no effect, 100 is complete control): 0

## Cc1cc(Oc2nn(-c3ccc(F)cc3)nc2C)ccc1F [Compound 86]
[1]; [11]
  Barnyardgrass plant response rating: 0
[1]; [12]
  Barnyardgrass plant response rating: 0
[1]; [15]
  Plant response rating, Barnyardgrass: 0
[1]; [16]
  Plant response rating, Barnyardgrass: 0
[2]; [11]
  Crabgrass, Large plant response rating: 0
[2]; [12]
  Crabgrass, Large plant response rating: 0
[2]; [15]
  Plant response rating, Crabgrass, Large: 0
[2]; [16]
  Plant response rating, Crabgrass, Large: 0
[3]; [11]
  Foxtail, Giant plant response rating: 0
[3]; [12]
  Foxtail, Giant plant response rating: 0
[3]; [15]
  Plant response rating, Foxtail, Giant: 0
[3]; [16]
  Plant response rating, Foxtail, Giant: 0
[4]; [11]
  Morningglory plant response rating: 0
[4]; [12]
  Morningglory plant response rating: 0
[4]; [15]
  Plant response rating, Morningglory: 0
[4]; [16]
  Plant response rating, Morningglory: 0
[5]; [11]
  Pigweed plant response rating: 0
[5]; [12]
  Pigweed plant response rating: 0
[5]; [15]
  Plant response rating, Pigweed: 0
[5]; [16]
  Plant response rating, Pigweed: 0
[6]; [11]
  Velvetleaf plant response rating: 0
[6]; [12]
  Velvetleaf plant response rating: 0
[6]; [15]
  Plant response rating, Velvetleaf: 0
[6]; [16]
  Plant response rating, Velvetleaf: 0
[7]; [11]
  Wheat plant response rating: 0
[7]; [12]
  Wheat plant response rating: 0
[7]; [15]
  Plant response rating, Wheat: 0
[7]; [16]
  Plant response rating, Wheat: 0
Corn (Zea mays); [11]
  Corn plant response rating: 0
Corn (Zea mays); [12]
  Corn plant response rating: 0
Corn (Zea mays); [15]
  Plant response rating, Corn: 0
Corn (Zea mays); [16]
  Plant response rating, Corn: 0
Rice (Oryza sativa)
  Plant response rating, Rice (0 to 100 scale, 0 is no effect, 100 is complete control): 0
[8]
  Plant response rating, Sedge, Umbrella (0 to 100 scale, 0 is no effect, 100 is complete control): 50
[9]
  Plant response rating, Ducksalad (0 to 100 scale, 0 is no effect, 100 is complete control): 0
[10]
  Plant response rating, Barnyardgrass (0 to 100 scale, 0 is no effect, 100 is complete control): 0

## Cc1nn(-c2ccnc(Cl)c2)nc1C(=O)c1cccc(C(F)(F)F)c1 [Compound 4]
[1]; [11]
  Barnyardgrass plant response rating: 20
[1]; [12]
  Barnyardgrass plant response rating: 30
[1]; [15]
  Plant response rating, Barnyardgrass: 10
[1]; [16]
  Plant response rating, Barnyardgrass: 60
[2]; [11]
  Crabgrass, Large plant response rating: 30
[2]; [12]
  Crabgrass, Large plant response rating: 70
[2]; [15]
  Plant response rating, Crabgrass, Large: 80
[2]; [16]
  Plant response rating, Crabgrass, Large: 90
[3]; [11]
  Foxtail, Giant plant response rating: 20
[3]; [12]
  Foxtail, Giant plant response rating: 40
[3]; [15]
  Plant response rating, Foxtail, Giant: 80
[3]; [16]
  Plant response rating, Foxtail, Giant: 100
[4]; [11]
  Morningglory plant response rating: 20
[4]; [12]
  Morningglory plant response rating: 40
[4]; [15]
  Plant response rating, Morningglory: 0
[4]; [16]
  Plant response rating, Morningglory: 40
[5]; [11]
  Pigweed plant response rating: 80
[5]; [12]
  Pigweed plant response rating: 100
[5]; [15]
  Plant response rating, Pigweed: 50
[5]; [16]
  Plant response rating, Pigweed: 100
[6]; [11]
  Velvetleaf plant response rating: 30
[6]; [12]
  Velvetleaf plant response rating: 30
[6]; [15]
  Plant response rating, Velvetleaf: 0
[6]; [16]
  Plant response rating, Velvetleaf: 0
[7]; [11]
  Wheat plant response rating: 20
[7]; [12]
  Wheat plant response rating: 40
[7]; [15]
  Plant response rating, Wheat: 0
[7]; [16]
  Plant response rating, Wheat: 30
Corn (Zea mays); [11]
  Corn plant response rating: 20
Corn (Zea mays); [12]
  Corn plant response rating: 30
Corn (Zea mays); [15]
  Plant response rating, Corn: 0
Corn (Zea mays); [16]
  Plant response rating, Corn: 0
Rice (Oryza sativa)
  Plant response rating, Rice (0 to 100 scale, 0 is no effect, 100 is complete control): 0
[8]
  Plant response rating, Sedge, Umbrella (0 to 100 scale, 0 is no effect, 100 is complete control): 70
[9]
  Plant response rating, Ducksalad (0 to 100 scale, 0 is no effect, 100 is complete control): 40
[10]
  Plant response rating, Barnyardgrass (0 to 100 scale, 0 is no effect, 100 is complete control): 20
